From patent US20200206198A1, “CFTR CHANNEL ACTIVATOR FOR USE IN THE TREATMENT AND/OR PREVENTION OF GLUTEN SENSITIVITY CONDITIONS” (priority 2017, published 2020)

How the values were obtained:
[1] = system: NOD mice transgenic for HLA DQ8 (NOD-DQ8); test: NOD-DQ8 mice orally challenged with gliadin; type: in vivo, mouse
Excerpt: In the second model of gluten sensitivity, the Applicant resorted to non-obese diabetic (NOD) female mice, which spontaneously develop autoimmune type-1 diabetes (Maurano, F., et al. 2005).
BALB/c mice (background BALB/cAnNCrl) were purchased from Charles River (Varese, Italy). Three generation gluten-free diet (Mucedola srl, Milan), male and female, were challenged with gliadin for 4 weeks. […]
Chambers for mounting either transwell cell cultures or mouse tissue biopsies were obtained from Physiologic Instruments (model P2300, San Diego, Calif., USA). […] Shortcircuit current (expressed as Isc (μA/cm2)) and resistance were acquired or calculated using the VCC600 transepithelial clamp from Physiologic Instruments and the Acquire & Analyze 2.3 software for data acquisition (Physiologic Instruments), as previously described Tosco A, et al. 2016; Romani, L. et al. 2017).
ELISA analysis was performed on tissue samples using standard ELISA kits (R&D Systems) for IL-15, IL-17A, INFγ IL21, IL10, TGF-β. […] Samples were read in triplicate at 450 nm in a Microplate Reader (BioRad, Milan, Italy) using Microplate Manager 5.2.1 software. Values were normalized to protein concentration evaluated by Bradford analysis. […]

[2] = system: recombinant human NBD1 (rhNBD1); test: Surface plasmon resonance peptide-protein interaction; type: binding
Description: Peptide-protein interactions were studied using a Biacore™ T100 (GE Healthcare) instrument. hrNBD1 domain or the indicated biotinylated peptides were immobilized by thiol coupling on a CMS (series S) sensor chip to a final density of 2000 resonance units (RU) or by biotin-streptavidin capture on a SA (series S) sensor chip to a final density of 250 RU, respectively. A flow cell with no immobilized protein or peptide was used as control. Binding analysis was carried out at 20° C. in a running buffer consisting of 10 mM HEPES, pH 7.4, 150 mM NaCl, 0.05% (v/v) Tween-20, 2 mM ATP, 5 mM MgCl2, 1 mM DTT applying a flow rate of 20 μl/min. For each experiment a Biacore™ method program was used. It included a series of three start up injections (running buffer), zero control (running buffer) and different concentrations of ligand. […] Each sensorgram (time-course of the surface plasmon resonance signal) was corrected for the response obtained in the control flow cell and normalized to baseline. Data were analysed using the 2.0.3 BIAevaluation software (GE Healthcare). At least three independent experiments for each analysis were performed.
FIG. 2: a, Protein-Protein docking and Molecular Dynamics of P31-43 (violet) bound to NBD1 (orange). Left side: general view of P31-43 and NBD1 interaction. Upper right: detailed interaction pattern, highlighting the most important amino acids. Lower right: in silico NBD1/P31-43 complex compared to the original crystallographic positions of Tip 401 and ATP. b, Graphical view of the in silico sampling percentage of P31-43 against NBD1/NBD2 (left 10 panel), and of P31-43/4QA (4QA) against NBD1 (right panel). c-d, Surface plasmon resonance (SPR) analysis of rhNBD1 binding to P31-43 and P57-68 biotinylated peptides immobilized on SA sensor chip (c) and of increasing concentrations of P31-43 and P57-68 peptides 15 on rhNBD1 covalently bound to the CMS sensor chip (d).

| Compound | effect on gliadin-induced increase of IFN-γ [1] | interaction with rhNBD1 in the flow phase ([2]; SPR, peptide immobilized on sensor chip) | SPR signal on immobilized rhNBD1 ([2]; rhNBD1 immobilized on chip, different peptide concentrations) |
| --- | --- | --- | --- |
| CC(C)(C)c1cc(C(C)(C)C)c(NC(=O)c2c[nH]c3ccccc3c2=O)cc1O [VX-770, N-(2,4-di-tert-butyl-5-hydroxyphenyl)-4-oxo-1,4-dihydroquinoline-3-carboxamide] | counteracted the gliadin-induced increase of IFN-γ | – | – |
| α-gliadin peptide LGQQQPFPPQQPY (SEQ ID 1), induces an enterocyte stress response (P31-43 sequence of alpha-gliadin) | – | confirmed the predicted interaction | yielded a dose-dependent signal |
